Test in all cases: [3H]cholesterol saturation binding, Ni-NTA capture, scintillation counting
The target of assay [1] is T1, NPC2 (NPC2-His10) (Homo sapiens, UniProt P61916, V81A).
T1 sequence (P61916 20-151 V81A): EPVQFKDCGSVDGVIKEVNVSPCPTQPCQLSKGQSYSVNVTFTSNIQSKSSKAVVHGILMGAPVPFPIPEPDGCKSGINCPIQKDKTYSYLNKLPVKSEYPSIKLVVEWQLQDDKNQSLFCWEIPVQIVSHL

For assay [2], the target named is T2, NPC2 (NPC2-His10) (Homo sapiens, UniProt P61916).
T2 sequence (P61916 20-151): T1 sequence (P61916 20-151 V81A) with A62V

In assay [3] the target is T3, NPC2 (NPC2-His10) (Homo sapiens, UniProt P61916, V81D).
T3 sequence (P61916 20-151 V81D): T1 sequence (P61916 20-151 V81A) with A62D

Residue numbers refer to the chain shown, from its start.

From paper PMC3034247 (Cell metabolism, 2010) come the findings set out here.

In the case of `CC(C)CCC[C@@H](C)[C@H]1CC[C@H]2[C@@H]3CC=C4C[C@@H](O)CC[C@]4(C)[C@H]3CC[C@]12C` [cholesterol], the Kd (in general, the concentration at which binding is half-saturated) in assay [1] is 80 nM; in assay [2], 81 nM; in assay [3] it was 72 nM.
